# Experimental data as given in article PMC8600679, “Substituted Two- to Five-Ring Polycyclic Aromatic Compounds Are Potent Agonists of Atlantic Cod (Gadus morhua) Aryl Hydrocarbon Receptors Ahr1a and Ahr2a” (Environmental Science & Technology, 2021).
# Read-outs that look alike come from different tables or passages of the source.
# Legend:
# [1] = target: T1, Atlantic cod Ahr2a (Gadus morhua, UniProt A0A6H1Z3G8); experiment: cell-based; details: for Activation of Ahr2a (agonist or not): in vitro transactivation; for Ahr2a REP25: EC25 of TCDD divided by concentration of PAC giving 25% of TCDD response; for Efficacy compared to TCDD via Ahr2a: Welch's t-test, Supporting Table S6; for fold higher REP25 with Ahr2a compared to Ahr1a: Ahr2a versus Ahr1a
# T1 sequence (A0A6H1Z3G8 1-1127): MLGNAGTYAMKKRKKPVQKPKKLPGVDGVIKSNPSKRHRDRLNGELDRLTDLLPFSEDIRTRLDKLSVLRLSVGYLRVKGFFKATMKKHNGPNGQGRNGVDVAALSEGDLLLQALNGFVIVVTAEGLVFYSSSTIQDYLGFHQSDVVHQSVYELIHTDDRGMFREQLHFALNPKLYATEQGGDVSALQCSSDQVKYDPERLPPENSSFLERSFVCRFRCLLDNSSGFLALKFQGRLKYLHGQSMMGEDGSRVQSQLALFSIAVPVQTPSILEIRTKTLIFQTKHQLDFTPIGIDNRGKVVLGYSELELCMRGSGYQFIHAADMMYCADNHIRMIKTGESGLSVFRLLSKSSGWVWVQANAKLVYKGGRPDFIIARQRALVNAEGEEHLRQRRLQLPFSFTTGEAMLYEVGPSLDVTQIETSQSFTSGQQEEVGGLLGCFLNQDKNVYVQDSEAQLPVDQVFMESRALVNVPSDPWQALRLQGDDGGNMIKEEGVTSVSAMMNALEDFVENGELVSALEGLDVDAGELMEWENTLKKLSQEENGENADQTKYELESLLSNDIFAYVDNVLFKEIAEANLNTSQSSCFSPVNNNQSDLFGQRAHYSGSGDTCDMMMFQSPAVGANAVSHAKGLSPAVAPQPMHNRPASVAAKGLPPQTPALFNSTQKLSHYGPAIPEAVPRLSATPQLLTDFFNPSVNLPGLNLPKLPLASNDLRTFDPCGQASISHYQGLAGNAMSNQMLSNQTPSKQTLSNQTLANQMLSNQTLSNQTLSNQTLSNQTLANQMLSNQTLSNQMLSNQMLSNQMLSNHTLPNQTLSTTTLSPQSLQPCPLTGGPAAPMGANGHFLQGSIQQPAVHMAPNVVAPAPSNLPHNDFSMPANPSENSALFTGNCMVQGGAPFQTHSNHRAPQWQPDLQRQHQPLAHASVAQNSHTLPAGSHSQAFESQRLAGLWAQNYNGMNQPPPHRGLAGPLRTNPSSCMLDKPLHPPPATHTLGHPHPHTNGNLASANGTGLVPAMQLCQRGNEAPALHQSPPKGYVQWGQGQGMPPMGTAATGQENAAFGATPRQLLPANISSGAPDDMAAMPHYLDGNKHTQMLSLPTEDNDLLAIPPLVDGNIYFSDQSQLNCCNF
# [2] = target: Atlantic cod Ahr1a (Gadus morhua, UniProt A0A6H1Z2L5); experiment: cell-based; details: for Activation of Ahr1a (agonist or not): in vitro transactivation; for Ahr1a REP25: EC25 of TCDD divided by concentration of PAC giving 25% of TCDD response; for Efficacy compared to TCDD with Ahr1a: Welch's t-test, Supporting Table S6
# Sequence of Atlantic cod Ahr1a (A0A6H1Z2L5 1-957): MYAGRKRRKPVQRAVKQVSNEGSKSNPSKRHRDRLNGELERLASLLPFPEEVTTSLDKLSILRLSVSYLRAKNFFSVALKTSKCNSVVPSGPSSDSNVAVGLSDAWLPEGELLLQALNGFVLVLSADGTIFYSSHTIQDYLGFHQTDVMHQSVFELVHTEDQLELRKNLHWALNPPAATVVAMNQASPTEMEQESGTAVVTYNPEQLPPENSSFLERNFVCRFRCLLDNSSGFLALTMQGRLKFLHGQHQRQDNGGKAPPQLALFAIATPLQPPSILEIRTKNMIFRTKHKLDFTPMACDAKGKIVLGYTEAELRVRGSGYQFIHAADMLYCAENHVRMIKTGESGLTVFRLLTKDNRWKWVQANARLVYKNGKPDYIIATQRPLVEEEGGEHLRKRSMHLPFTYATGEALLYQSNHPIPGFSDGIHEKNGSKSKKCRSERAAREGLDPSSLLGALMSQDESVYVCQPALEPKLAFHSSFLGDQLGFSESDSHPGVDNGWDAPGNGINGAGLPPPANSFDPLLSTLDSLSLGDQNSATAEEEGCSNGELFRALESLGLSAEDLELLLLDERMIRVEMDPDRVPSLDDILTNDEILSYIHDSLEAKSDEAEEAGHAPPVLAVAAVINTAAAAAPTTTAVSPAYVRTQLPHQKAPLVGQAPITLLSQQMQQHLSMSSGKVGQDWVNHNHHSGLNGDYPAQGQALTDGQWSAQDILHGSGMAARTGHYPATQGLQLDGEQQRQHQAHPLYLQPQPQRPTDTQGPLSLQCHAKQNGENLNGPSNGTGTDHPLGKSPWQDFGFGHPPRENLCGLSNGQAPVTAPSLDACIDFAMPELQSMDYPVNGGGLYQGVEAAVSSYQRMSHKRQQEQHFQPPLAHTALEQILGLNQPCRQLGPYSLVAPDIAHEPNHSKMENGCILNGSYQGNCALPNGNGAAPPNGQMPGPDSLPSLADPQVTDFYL
# Sequence of Atlantic cod Ahr1a (A0A8C5CZZ9 1-645 partner): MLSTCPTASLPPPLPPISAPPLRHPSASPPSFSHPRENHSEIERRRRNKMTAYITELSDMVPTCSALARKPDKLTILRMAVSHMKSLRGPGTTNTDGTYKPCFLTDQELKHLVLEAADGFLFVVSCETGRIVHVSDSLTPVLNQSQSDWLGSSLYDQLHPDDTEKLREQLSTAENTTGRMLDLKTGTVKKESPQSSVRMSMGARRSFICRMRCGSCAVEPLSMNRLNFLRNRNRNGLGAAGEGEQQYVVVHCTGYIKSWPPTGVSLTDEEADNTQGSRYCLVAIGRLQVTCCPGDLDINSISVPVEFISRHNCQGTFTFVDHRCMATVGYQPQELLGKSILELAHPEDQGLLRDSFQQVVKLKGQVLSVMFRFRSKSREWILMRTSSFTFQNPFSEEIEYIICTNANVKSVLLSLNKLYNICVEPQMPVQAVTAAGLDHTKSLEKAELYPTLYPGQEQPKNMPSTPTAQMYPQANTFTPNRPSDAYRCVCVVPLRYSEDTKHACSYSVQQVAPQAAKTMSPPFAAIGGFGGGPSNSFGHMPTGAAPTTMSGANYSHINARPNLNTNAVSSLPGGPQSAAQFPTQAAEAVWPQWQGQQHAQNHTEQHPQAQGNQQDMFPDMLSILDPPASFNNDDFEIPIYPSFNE
# [3] = percent of maximum efficacy determined for TCDD, COS-7 cells, 24 h exposure, None = no agonistic response significantly different from solvent
# [4] = COS-7, curve did not reach a plateau: relative response at the highest tested concentration, percent of TCDD maximum, read-out: Ahr2a Relative Emax (%), marked *
# [5] = COS-7, curve did not reach a plateau: relative response at the highest tested concentration, percent of TCDD maximum, read-out: Ahr1a Relative Emax (%), marked *
# [6] = Ahr2a EC50 (nM), COS-7 cells, 24 h exposure
# [7] = COS-7, read-out: Ahr2a Relative Emax (%)
# [8] = Ahr1a EC50 (nM), COS-7 cells, 24 h exposure
# [9] = COS-7, read-out: Ahr1a Relative Emax (%)
# [10] = COS-7 cells, 24 h exposure, read-out: Ahr2a EC50
# [11] = Supplementary Table S5, read-out: Potency (EC50, nM) Ahr2a
# [12] = percent of maximum efficacy determined for TCDD, COS-7 cells, 24 h exposure, None = no agonistic response significantly different from solvent, read-out: Ahr2a Relative Emax (%)
# [13] = COS-7, Supplementary Table S5, read-out: Efficacy (Emax, %) Ahr1a
# [14] = COS-7 cells, 24 h exposure, read-out: Ahr1a EC50
# [15] = percent of maximum efficacy determined for TCDD, COS-7 cells, 24 h exposure, None = no agonistic response significantly different from solvent, read-out: Ahr1a Relative Emax (%)
# [16] = COS-7, Supplementary Table S5, read-out: Efficacy (Emax, %) Ahr2a
# [17] = Supplementary Table S5, read-out: Potency (EC50, nM) Ahr1a
SMILES,Activation of Ahr2a (agonist or not) [1],"Ahr2a Relative Emax (%) [1, 3]",Activation of Ahr1a (agonist or not) [2],"Ahr1a Relative Emax (%) [2, 3]",Ahr2a REP25 [1],Ahr1a REP25 [2],Efficacy compared to TCDD with Ahr1a [2],further results
"Cc1ccc2c(ccc3c(C)cccc32)c1 [1,7-DMP, 1,7-Dimethylphenanthrene]",did not activate,None,did not activate,None,,,,
"c1ccc2c(c1)sc1ccccc12 [DBT, Dibenzothiophene]",did not activate,None,did not activate,None,,,,
"O[C@@H]1C=Cc2c(ccc3ccccc23)[C@H]1O [R,R-1,2-DHP, (1R,2R)-1.2-Dihydrophenanthrene-1,2-diol]",activated both Ahr1a and Ahr2a,,activated both Ahr1a and Ahr2a,,0.000044,0.00002,,"Emax [1, 4]: 25.9%; Emax [2, 5]: 36.1%"
"Oc1ccc2c(ccc3c4ccccc4ccc23)c1 [2-COH, Chrysene-2-ol]",,,,,0.0038,0.00268,efficacies similar to that of TCDD,"EC50 [1, 6]: 380 nM; Emax [1, 7]: 40.8%; Efficacy compared to TCDD via Ahr2a [1]: lower efficacies in comparison to TCDD; EC50 [2, 8]: 325 nM; Emax [2, 9]: 91.1%; EC50 ([2]; Potency (EC50, nM) Ahr1a, Supplementary Table S5): 324 nM"
"Cc1cccc2ccc3c4ccccc4ccc3c12 [4-MC, 4-Methylchrysene]",,,,,0.0217,0.041,higher efficacies (superefficacies) than TCDD,"EC50 [1, 10]: 128 nM; EC50 [1, 11]: 128 nM; Efficacy compared to TCDD via Ahr2a [1]: lower efficacies in comparison to TCDD; Emax [1, 12]: 55.9%; Emax [2, 13]: 112%; EC50 [2, 14]: 120 nM; Emax [2, 15]: 113%"
"Cc1ccc(C)c2c1ccc1ccccc12 [1,4-DMP, 1,4-Dimethylphenanthrene]",did not activate,None,did not activate,None,,,,
"Cc1ccc2c(ccc3cc(C)ccc32)c1 [2,7-DMP, 2,7-Dimethylphenanthrene]",did not activate,None,did not activate,None,,,,
"c1ccc2c(c1)ccc1ccccc12 [PHE, Phenanthrene]",did not activate,None,did not activate,None,,,,
"c1ccc2c(c1)Cc1ccccc1-2 [FLU, Fluorene]",did not activate,None,did not activate,None,,,,
"CCc1ccc2ccc3ccccc3c2c1 [3-EP, 3-Ethylphenanthrene]",did not activate,None,did not activate,None,,,,
"c1ccc2c(c1)cc1ccc3cccc4ccc2c1c34 [BAP, Benzo[a]pyrene]",agonist for both Ahrs,,agonist for both Ahrs,,,0.0956,higher efficacies (superefficacies) than TCDD,"EC50 [1, 6]: 6.8 nM; fold higher REP25 with Ahr2a compared to Ahr1a [1]: 5- to 10 fold; Emax [1, 7]: 103%; Emax ([1]; COS-7, read-out: Efficacy (Emax, %) Ahr2a): 103%; EC50 [2, 8]: 25.8 nM; Emax [2, 9]: 107%; Emax ([2]; COS-7, read-out: Efficacy (Emax, %) Ahr1a): 107%"
"Cc1ccc2c(ccc3c4ccccc4ccc23)c1 [2-MC, 2-Methylchrysene]",,,,,,0.324,higher efficacies (superefficacies) than TCDD,"Emax [1, 16]: 127%; EC50 [1, 10]: 41.8 nM; Efficacy compared to TCDD via Ahr2a [1]: superefficacies; Emax [1, 12]: 127%; Emax [2, 13]: 125%; EC50 [2, 14]: 22 nM; Emax [2, 15]: 125%"
"O[C@@H]1C=Cc2ccccc2[C@H]1O [R,R-1,2-DHN, (1R,2R)-1.2-Dihydronaphthalene-1,2-diol]",activated both Ahr1a and Ahr2a,,activated both Ahr1a and Ahr2a,,0.00124,0.00028,,"fold higher REP25 with Ahr2a compared to Ahr1a [1]: 5- to 10 fold; Emax [1, 4]: 140%; Emax [2, 5]: 145%"
"COc1cccc2c1ccc1c3ccccc3ccc21 [1-MOC, 1-Methoxychrysene]",,,,,0.0243,0.0277,efficacies similar to that of TCDD,"EC50 [1, 10]: 160 nM; EC50 [1, 11]: 160 nM; Efficacy compared to TCDD via Ahr2a [1]: lower efficacies in comparison to TCDD; Emax [1, 12]: 66.4%; EC50 [2, 14]: 102 nM; EC50 [2, 17]: 102 nM; Emax [2, 15]: 97.3%"
"Cc1ccc2ccc3c4ccccc4ccc3c2c1 [3-MC, 3-Methylchrysene]",,,,,0.167,0.0413,efficacies similar to that of TCDD,"Emax [1, 16]: 102%; EC50 [1, 10]: 54 nM; Emax [1, 12]: 102%; Emax [2, 13]: 110%; EC50 [2, 17]: 101 nM; Emax [2, 15]: 111%"
"c1ccc2ccccc2c1 [NAP, Naphthalene]",did not activate,None,did not activate,None,,,,
"Oc1cccc2ccc3c4ccccc4ccc3c12 [4-COH, Chrysene-4-ol]",,,,,0.0016,0.00105,efficacies similar to that of TCDD,"Emax [1, 4]: 98.8%; EC50 [1, 11]: 11000 nM; EC50 [2, 14]: 1340 nM; Emax [2, 15]: 91.7%"
"CCCc1ccc2ccc3ccccc3c2c1 [3-PP, 3-Propylphenanthrene]",activated both Ahr1a and Ahr2a,,activated both Ahr1a and Ahr2a,,,0.00011,,"Emax [1, 12]: 12.4%; Emax [2, 5]: 42.5%"
"COc1ccc2c(ccc3c4ccccc4ccc23)c1 [2-MOC, 2-Methoxychrysene]",,,,,,0.244,efficacies similar to that of TCDD,"Emax [1, 16]: 114%; EC50 [1, 10]: 20.1 nM; Efficacy compared to TCDD via Ahr2a [1]: superefficacies; Emax [1, 12]: 115%; EC50 [2, 14]: 13 nM; Emax [2, 15]: 95.9%"
"Cc1ccc2ccc3ccc(C)cc3c2c1 [3,6-DMP, 3,6-Dimethylphenanthrene]",did not activate,None,did not activate,None,,,,
"c1cc2ccc3cccc4ccc(c1)c2c34 [PYR, Pyrene]",did not activate,None,did not activate,None,,,,
